Measurements as given in patent US10047088B2, “1H-1,8-naphthyridin-2-ones as anti proliferative compounds” (NATCO PHARMA LIMITED, priority 2014, dated 2018).
pIC50: −log10 of the molar value. Read-outs that look alike come from different tables or passages of the source.

Tests used:
Baf3/T315I = Baf3/T315I (Homo sapiens, UniProt P00519, T315I, cells depend on it); assay: MTT cell proliferation assay, Baf3/T315I; assay type: cell-based; conditions: read-out: IC50 values obtained from MTT assay
Procedure: (§1) All the experimental compounds were evaluated for in vitro efficacy employing standard cell lines used for the screening of anti-cancer compounds.
(§2) In Vitro Studies of NRC-21T on BCR-abl Positive Cell Line K562 and Mutant Cell Lines Baf3/T315i, M351T, E255K and WT.
(§3) The stock solution was further diluted with the same cell culture medium and used in concentrations of 0.1 nm to 10 μm. Cell proliferation by MTT assay was done as follows. 1000 to 10,000 cells were seeded per well in 96-well plate and different concentrations of […] ranging from 10 μm to 0.1 nM were added in triplicates. After incubating the cells with NRC-21T for the required time period 24-72 hrs, 15 μl of 5 mg/ml MTT was added and incubated for additional 4 hours at 37° C. and 5% CO2. After 4 hrs, formazan crystals were dissolved in solubilizing buffer overnight at 37° C. Absorbance was measured on Elisa reader at dual wavelength of 570-630-nm. By MTT assay the IC50 values of the NRC21T were computed. […] (FIG. 3)

Baf3/M351T = Baf3/M351T (Homo sapiens, UniProt P00519, M351T, cells depend on it); assay: MTT cell proliferation assay, Baf3/M351T; assay type: cell-based; conditions: Table 1A, 24-72 hrs incubation, read-out: IC50 values obtained from MTT assay
Procedure: as §1, §2, §3

Baf3/E255K = Baf3/E255K (Homo sapiens, UniProt P00519, E255K, cells depend on it); assay: MTT cell proliferation assay, Baf3/E255K; assay type: cell-based; conditions: Table 1A, 24-72 hrs incubation, read-out: IC50 values obtained from MTT assay
Procedure: as §1, §2, §3

Baf3/WT = Baf3/WT (Homo sapiens, UniProt P00519); assay: MTT cell proliferation assay, Baf3/WT; assay type: cell-based; conditions: Table 1A, 24-72 hrs incubation, read-out: IC50 values obtained from MTT assay
Procedure: as §1, §2, §3

[1] = system: BCR-abl positive cell line K562; assay: MTT cell proliferation assay, K562; assay type: cell-based; conditions: Homo sapiens, read-out: IC50 values obtained from MTT assay
Procedure: as §1, §2, §3

[2] = system: BaF3/T315i mutant Leukemia cancer cells; assay: Matrigel invasion assay; assay type: cell-based; conditions: matrigel transwell, 72 hrs, specified concentration
Procedure: T315i cells (3×10^5) were suspended in 300 μl of serum-free medium and placed in the upper compartment of transwell chambers pre-coated with the matrigel (Millipore, Catalog No. ECM550, USA). The lower compartment of the chamber was filled with 500 μl serum-medium (10% FBS) and the cells were allowed to migrate for 72 hrs. After incubation, the cells were fixed and stained with the dye provided along with the kit and quantified using Elisa plate reader at 560 nm.

T315I induced tumour = assay: Antagonism in T315I induced tumour in Nude Mice; assay type: in vivo; conditions: for Tumour volume after treatment (Mean ± SEM): daily oral, NRC21T 200 mg/kg, Ponatinib 50 mg/kg
Procedure: The study was carried out with 18 Nude Mice (9 Male+9 Female).
The cell line was inoculated into Nude Mice subcutaneously to the right hind limb flank at a strength of 1×10^6 cells/0.2 ml. Animals were observed daily for the appearance of tumour. The tumour volume was measured using the formula ½ l×w^2 (l=length of tumour & w=width of tumour). When the mean tumour volume was recorded above 400 mm^3, the treatment with the above drugs was started. The above drugs were administered orally daily for 30 days. Weights of Nude Mice were taken daily before dosing and tumour measurements were done on alternative days using digital Vernier caliper. Surviving animals were sacrificed after the dosing was complete for 30 days and the organs (tumour with skin and spleen) were collected.

T315I cell Line = assay: Survival time in SCID Mice injected with T315I cell line; assay type: in vivo; conditions: T315I cells i.v., 30 days dosing, NRC21T 200 mg/kg p.o, Ponatinib 10 mg/kg p.o
in vivo = conditions: both, Swiss Albino, mouse

With `Cc1ccc(C(=O)Nc2ccc(CN3CCN(C)CC3)c(C(F)(F)F)c2)cc1C#Cc1cnc2[nH]c(=O)ccc2c1` [NRC21T, 4-Methyl-N-[4-[(4-methylpiperazin-1-yl)methyl]-3-(trifluoromethyl)phenyl]-3-[2-(7-oxo-8H-1,8-naphthyridin-3-yl)ethynyl]benzamide] the GI50 (Baf3/T315I; Table 1A, Baf3/T315I, 24-72 hrs incubation) was 14 nM, the GI50 (Baf3/M351T) was 2 nM and the GI50 (Baf3/E255K) was 16 nM. For the same compound, the GI50 (Baf3/WT) was 11 nM, the pIC50 ([1]; Table 1A, 24-72 hrs incubation) was 8.15 and the “Percentage of Anti-invasion property” value [2] was 28%. The “Tumour volume after treatment (Mean ± SEM)” value (T315I induced tumour; 3rd Day) was 721.18 ± 141.41 mm^3, the “Tumour volume after treatment (Mean ± SEM)” value (T315I induced tumour; 5th Day) was 183.97 ± 8.66 mm^3 and the “Tumour volume after treatment (Mean ± SEM)” value (T315I induced tumour; 7th Day) was 106.59 ± 11.90 mm^3. The “Tumour volume after treatment (Mean ± SEM)” value (T315I induced tumour; 9th Day) was 83.21 ± 8.83 mm^3, the “Tumour volume after treatment (Mean ± SEM)” value (T315I induced tumour; 11th Day) was 48.88 ± 4.36 mm^3 and the “Tumour volume after treatment (Mean ± SEM)” value (T315I induced tumour; 13th Day) was 10.61 ± 2.3 mm^3. For the same compound, the “Initial tumour volume (Mean ± SEM)” value (T315I induced tumour; before treatment, NRC21T 200 mg/kg p.o, Ponatinib 50 mg/kg p.o groups) was 921.35 ± 176.32 mm^3, the “Mean Survival Time (Mean ± SEM)” value (T315I cell Line) was 36 ± 0 days and the MTD at 14 days (in vivo) was greater than 2000 mg/kg.
`Cc1ccc(NC(=O)c2cccc(C(F)(F)F)c2)cc1C#Cc1cnc2[nH]c(=O)ccc2c1` [NRC-13T, N-[4-Methyl-3-[2-(7-oxo-8H-1,8-naphthyridin-3-yl)ethynyl]phenyl]-3-(trifluoromethyl)benzamide] gave a GI50 (Baf3/T315I; Table 1B, T315I) of 1510 nM and a pIC50 ([1]; Table 1B) of 8.05.
In the case of `Cc1ccc(C(=O)Nc2cccc(C(F)(F)F)c2)cc1C#Cc1cnc2[nH]c(=O)ccc2c1` [NRC-14T, 4-Methyl-3-[2-(7-oxo-8H-1,8-naphthyridin-3-yl)ethynyl]-N-[3-(trifluoromethyl)phenyl]benzamide], the GI50 (Baf3/T315I; Table 1B, T315I) was 1040 nM and the pIC50 ([1]; Table 1B) was 8.10.
`Cc1ccc(NC(=O)c2cc(C(F)(F)F)cc(C(F)(F)F)c2)cc1C#Cc1cnc2[nH]c(=O)ccc2c1` [NRC-15T, N-[4-Methyl-3-[2-(7-oxo-8H-1,8-naphthyridin-3-yl)ethynyl]phenyl]-3,5-Bis(trifluoromethyl)benzamide] showed a GI50 (Baf3/T315I; Table 1B, T315I) of 7690 nM and a pIC50 ([1]; Table 1B) of 7.70.
With `Cc1ccc(C(=O)Nc2cc(C(F)(F)F)cc(C(F)(F)F)c2)cc1C#Cc1cnc2[nH]c(=O)ccc2c1` [NRC-16T, N-[3,5-Bis(trifluoromethyl)phenyl]-4-methyl-3-[2-(7-oxo-8H-1,8-naphthyridin-3-yl)ethynyl]benzamide] the GI50 (Baf3/T315I; Table 1B, T315I) was greater than 10000 nM.
Work on `Cc1ccc(C(=O)Nc2cc(CN3CCN(C)CC3)cc(C(F)(F)F)c2)cc1C#Cc1cnc2[nH]c(=O)ccc2c1` [NRC-17T, 4-Methyl-N-[3-[(4-methylpiperazin-1-yl)methyl]-5-(trifluoromethyl)phenyl]-3-[2-(7-oxo-8H-1,8-naphthyridin-3-yl)ethynyl]benzamide] yielded a GI50 (Baf3/T315I; Table 1B, T315I) of 712 nM and a pIC50 ([1]; Table 1B) of 7.68.
For `Cc1cn(-c2cc(NC(=O)c3ccc(C)c(C#Cc4cnc5[nH]c(=O)ccc5c4)c3)cc(C(F)(F)F)c2)cn1` [NRC-18T, 4-Methyl-N-[3-(4-methylimidazol-1-yl)-5-(trifluoromethyl)phenyl]-3-[2-(7-oxo-8H-1,8-naphthyridin-3-yl)ethynyl]benzamide], the GI50 (Baf3/T315I; Table 1B, T315I) was 228 nM.
`Cc1ccc(NC(=O)c2ccc(CN3CCN(C)CC3)c(C(F)(F)F)c2)cc1C#Cc1cnc2[nH]c(=O)ccc2c1` [NRC-19T, N-[4-Methyl-3-[2-(7-oxo-8H-1,8-naphthyridin-3-yl)ethynyl]phenyl]-4-[(4-methylpiperazin-1-yl)methyl]-3-(trifluoromethyl)benzamide] gave a GI50 (Baf3/T315I; Table 1B, T315I) of 334 nM and a pIC50 ([1]; Table 1B) of 8.15.
In the case of `Cc1ccc(C(=O)Nc2ccc(CN3CCN(C)CC3)c(C(F)(F)F)c2)cc1/C=C/c1cnc2[nH]c(=O)ccc2c1` [NRC-20T, 4-Methyl-N-[4-[(4-methylpiperazin-1-yl)methyl]-3-(trifluoromethyl)phenyl]-3-[(E)-2-(7-oxo-8H-1,8-naphthyridin-3-yl)vinyl]benzamide], the GI50 (Baf3/T315I; Table 1B, T315I) was 155 nM and the pIC50 ([1]; Table 1B) was 7.48.
In the case of `Cc1ccc(C(=O)Nc2ccc(CN3CCN(C)CC3)c(C(F)(F)F)c2)cc1C#Cc1cnc2cccnn12` [Ponatinib, reference compound], the “Percentage of Anti-invasion property” value [2] was 12% and the “Mean Survival Time (Mean ± SEM)” value (T315I cell Line) was 36 ± 0 days.
